Experimental data taken from article PMC4890880 (ACS infectious diseases, 2016).
pIC50: −log10 of the molar value. Like-named read-outs stand apart in the source and are kept apart here.

Key:
[1] = tested on: Plasmodium berghei (Pb-Luc) exoerythrocytic-stage parasites; conditions: for normalized signal at 0.000508053 (first series): concentration 0.000508053, first replicate series; for normalized signal at 0.000508053 (first series) / normalized signal at 0.000508053 (second series) / normalized signal at 0.00152416 (first series) / normalized signal at 0.00152416 (second series) / normalized signal at 0.00457247 (first series) / normalized signal at 0.00457247 (second series) / normalized signal at 0.0137174 (first series) / normalized signal at 0.0137174 (second series) / normalized signal at 0.0411523 (first series) / normalized signal at 0.0411523 (second series) / normalized signal at 0.123457 (first series) / normalized signal at 0.123457 (second series) / normalized signal at 0.37037 (first series) / normalized signal at 0.37037 (second series) / normalized signal at 1.11111 (first series) / normalized signal at 1.11111 (second series) / normalized signal at 3.33333 (first series) / normalized signal at 3.33333 (second series) / normalized signal at 10 (first series) / normalized signal at 10 (second series) / normalized signal at concentration 10 / normalized signal at concentration 0.000508053 / normalized signal at concentration 0.00152416 / normalized signal at concentration 0.00457247 / normalized signal at concentration 0.0137174 / normalized signal at concentration 0.0411523 / normalized signal at concentration 0.123457 / normalized signal at concentration 0.37037 / normalized signal at concentration 1.11111 / normalized signal at concentration 3.33333: fraction of control; for normalized signal at 0.000508053 (second series): concentration 0.000508053, second replicate series; for normalized signal at 0.00152416 (first series): concentration 0.00152416, first replicate series; for normalized signal at 0.00152416 (second series): concentration 0.00152416, second replicate series; for normalized signal at 0.00457247 (first series): concentration 0.00457247, first replicate series; for normalized signal at 0.00457247 (second series): concentration 0.00457247, second replicate series; for normalized signal at 0.0137174 (first series): concentration 0.0137174, first replicate series; for normalized signal at 0.0137174 (second series): concentration 0.0137174, second replicate series; for normalized signal at 0.0411523 (first series): concentration 0.0411523, first replicate series; for normalized signal at 0.0411523 (second series): concentration 0.0411523, second replicate series; for normalized signal at 0.123457 (first series): concentration 0.123457, first replicate series; for normalized signal at 0.123457 (second series): concentration 0.123457, second replicate series; for normalized signal at 0.37037 (first series): concentration 0.37037, first replicate series; for normalized signal at 0.37037 (second series): concentration 0.37037, second replicate series; for normalized signal at 1.11111 (first series): concentration 1.11111, first replicate series; for normalized signal at 1.11111 (second series): concentration 1.11111, second replicate series; for normalized signal at 3.33333 (first series): concentration 3.33333, first replicate series; for normalized signal at 3.33333 (second series): concentration 3.33333, second replicate series; for normalized signal at 10 (first series): concentration 10, first replicate series; for normalized signal at 10 (second series): concentration 10, second replicate series; for pIC50: read-out: PbLuc_IC50
HepG2-A16-CD81EGFP cells = conditions: for pIC50: read-out: Tox_IC50, HepG2 cytotoxicity
[2] = 2nd round, maximal inhibition in dose series
[3] = 2nd round, Broad DOS compounds, unit not printed (dose series head 10 to 0.000508053)
[4] = first series of dose-response columns
[5] = sheet 2nd round, Broad compounds, dose response
[6] = second series of dose-response columns
[7] = sheet 2nd round, maximal inhibition in dose response

SMILES: O=C(C[C@@H]1CC[C@@H]2[C@H](COC[C@@H](O)CN2C(=O)c2ccncc2)O1)Nc1ccc(-c2ccccc2)cc1 [BRD-K17686828-001-01-0]
- PbLuc_max_inhibition (%) [1, 2]: 43%
- normalized signal at 0.000508053 (first series) [1]: 1.033
- normalized signal at 0.000508053 (second series) [1]: 0.8541
- normalized signal at 0.00152416 (first series) [1]: 0.9014
- normalized signal at 0.00152416 (second series) [1]: 0.8307
- normalized signal at 0.00457247 (first series) [1]: 0.9821
- normalized signal at 0.00457247 (second series) [1]: 0.9422
- normalized signal at 0.0137174 (first series) [1]: 1.011
- normalized signal at 0.0137174 (second series) [1]: 0.8936
- normalized signal at 0.0411523 (first series) [1]: 0.9016
- normalized signal at 0.0411523 (second series) [1]: 0.7632
- normalized signal at 0.123457 (first series) [1]: 1.067
- normalized signal at 0.123457 (second series) [1]: 0.5683
- normalized signal at 0.37037 (first series) [1]: 0.7959
- normalized signal at 0.37037 (second series) [1]: 0.6689
- normalized signal at 1.11111 (first series) [1]: 0.9118
- normalized signal at 1.11111 (second series) [1]: 0.6624
- normalized signal at 3.33333 (first series) [1]: 0.9028
- normalized signal at 3.33333 (second series) [1]: 0.8412
- normalized signal at 10 (first series) [1]: 0.8222
- normalized signal at 10 (second series) [1]: 0.7063
- pIC50 [1, 3]: < 5.00
- Tox_max_inhibition (%) (HepG2-A16-CD81EGFP cells; [2]): 9%
- pIC50 (HepG2-A16-CD81EGFP cells; 2nd round, unit inferred): < 5.00

SMILES: C/C=C/c1ccc([C@H]2[C@@H](CO)N(CC3CCCCC3)[C@@H]2CNC(C)C)cc1 [BRD-K19633528-001-01-3]
- PbLuc_max_inhibition (%) [1, 2]: 58%
- normalized signal at 0.000508053 (first series) [1]: 1
- normalized signal at 0.000508053 (second series) [1]: 0.834
- normalized signal at 0.00152416 (first series) [1]: 0.9222
- normalized signal at 0.00152416 (second series) [1]: 0.7558
- normalized signal at 0.00457247 (first series) [1]: 0.9507
- normalized signal at 0.00457247 (second series) [1]: 1.046
- normalized signal at 0.0137174 (first series) [1]: 0.9718
- normalized signal at 0.0137174 (second series) [1]: 0.826
- normalized signal at 0.0411523 (first series) [1]: 1.123
- normalized signal at 0.0411523 (second series) [1]: 1.151
- normalized signal at 0.123457 (first series) [1]: 1.141
- normalized signal at 0.123457 (second series) [1]: 0.8556
- normalized signal at 0.37037 (first series) [1]: 1.177
- normalized signal at 0.37037 (second series) [1]: 1.086
- normalized signal at 1.11111 (first series) [1]: 1.183
- normalized signal at 1.11111 (second series) [1]: 0.9808
- normalized signal at 3.33333 (first series) [1]: 1.3301
- normalized signal at 3.33333 (second series) [1]: 0.9519
- normalized signal at 10 (first series) [1]: 0.5856
- normalized signal at 10 (second series) [1]: 0.4223
- pIC50 [1, 3]: < 5.00
- Tox_max_inhibition (%) (HepG2-A16-CD81EGFP cells; [2]): 16%
- pIC50 (HepG2-A16-CD81EGFP cells; 2nd round, unit inferred): < 5.00

SMILES: C[C@@H]1CN([C@@H](C)CO)C(=O)c2cccc(NC(=O)C3CC3)c2O[C@@H]1CN(C)C(=O)Nc1ccc(C(F)(F)F)cc1 [BRD-K19818397-001-01-8]
- normalized signal at concentration 10 [1, 4]: 1.071
- normalized signal at concentration 0.000508053 ([1]; first series): 1.034
- normalized signal at concentration 0.00152416 ([1]; first series): 0.8006
- normalized signal at concentration 0.00457247 ([1]; first series): 1.0648
- normalized signal at concentration 0.0137174 ([1]; first series): 1.106
- normalized signal at concentration 0.0411523 ([1]; first series): 1.032
- normalized signal at concentration 0.123457 ([1]; first series): 1.068
- normalized signal at concentration 0.37037 ([1]; first series): 0.8949
- normalized signal at concentration 1.11111 ([1]; first series): 0.9694
- normalized signal at concentration 3.33333 ([1]; first series): 1.103
- pIC50 [1, 5]: < 5.00
- normalized signal at concentration 10 [1, 6]: 1.03
- normalized signal at concentration 0.000508053 ([1]; second series): 1.064
- normalized signal at concentration 0.00152416 ([1]; second series): 1.02
- normalized signal at concentration 0.00457247 ([1]; second series): 1.098
- normalized signal at concentration 0.0137174 ([1]; second series): 0.9383
- normalized signal at concentration 0.0411523 ([1]; second series): 0.9903
- normalized signal at concentration 0.123457 ([1]; second series): 1.126
- normalized signal at concentration 0.37037 ([1]; second series): 1.0101
- normalized signal at concentration 1.11111 ([1]; second series): 1.172
- normalized signal at concentration 3.33333 ([1]; second series): 1.008
- PbLuc_max_inhibition (%) [1, 7]: 20%
- pIC50 (HepG2-A16-CD81EGFP cells; sheet 2nd round): < 5.00
- Tox_max_inhibition (%) (HepG2-A16-CD81EGFP cells; [7]): 16%

SMILES: O=S(=O)(c1cccs1)N1CCCCN2[C@H](CO)[C@H](c3ccc(/C=C/c4ccccc4)cc3)[C@H]2C1 [BRD-K20449903-001-01-6]
- normalized signal at concentration 10 [1, 4]: 0.52
- normalized signal at concentration 0.000508053 ([1]; first series): 1.07
- normalized signal at concentration 0.00152416 ([1]; first series): 1.07
- normalized signal at concentration 0.00457247 ([1]; first series): 0.84
- normalized signal at concentration 0.0137174 ([1]; first series): 1.09
- normalized signal at concentration 0.0411523 ([1]; first series): 0.93
- normalized signal at concentration 0.123457 ([1]; first series): 1.01
- normalized signal at concentration 0.37037 ([1]; first series): 1.01
- normalized signal at concentration 1.11111 ([1]; first series): 1.05
- normalized signal at concentration 3.33333 ([1]; first series): 1.18
- pIC50 [1, 5]: < 5.00
- normalized signal at concentration 10 [1, 6]: 0.70
- normalized signal at concentration 0.000508053 ([1]; second series): 0.94
- normalized signal at concentration 0.00152416 ([1]; second series): 1.05
- normalized signal at concentration 0.00457247 ([1]; second series): 0.96
- normalized signal at concentration 0.0137174 ([1]; second series): 1.06
- normalized signal at concentration 0.0411523 ([1]; second series): 1.19
- normalized signal at concentration 0.123457 ([1]; second series): 1.23
- normalized signal at concentration 0.37037 ([1]; second series): 0.91
- normalized signal at concentration 1.11111 ([1]; second series): 1.04
- normalized signal at concentration 3.33333 ([1]; second series): 1.04
- PbLuc_max_inhibition (%) [1, 7]: 48%
- pIC50 (HepG2-A16-CD81EGFP cells; sheet 2nd round): < 5.00
- Tox_max_inhibition (%) (HepG2-A16-CD81EGFP cells; [7]): 9%

SMILES: Cc1cccc(-c2ccc(C3[C@@H]4CN(C(=O)CN(C)C)C[C@H]3N4)cc2)c1 (stereo partly drawn) [BRD-K25161260-019-01-1]
- normalized signal at concentration 10 [1, 4]: 0.87
- normalized signal at concentration 0.000508053 ([1]; first series): 0.66
- normalized signal at concentration 0.00152416 ([1]; first series): 0.79
- normalized signal at concentration 0.00457247 ([1]; first series): 0.92
- normalized signal at concentration 0.0137174 ([1]; first series): 0.97
- normalized signal at concentration 0.0411523 ([1]; first series): 0.91
- normalized signal at concentration 0.123457 ([1]; first series): 0.95
- normalized signal at concentration 0.37037 ([1]; first series): 0.78
- normalized signal at concentration 1.11111 ([1]; first series): 0.60
- normalized signal at concentration 3.33333 ([1]; first series): 0.90
- pIC50 [1, 5]: < 5.00
- normalized signal at concentration 10 [1, 6]: 0.87
- normalized signal at concentration 0.000508053 ([1]; second series): 0.94
- normalized signal at concentration 0.00152416 ([1]; second series): 0.94
- normalized signal at concentration 0.00457247 ([1]; second series): 1.11
- normalized signal at concentration 0.0137174 ([1]; second series): 1.12
- normalized signal at concentration 0.0411523 ([1]; second series): 1.00
- normalized signal at concentration 0.123457 ([1]; second series): 1.11
- normalized signal at concentration 0.37037 ([1]; second series): 0.98
- normalized signal at concentration 1.11111 ([1]; second series): 0.83
- normalized signal at concentration 3.33333 ([1]; second series): 0.97
- PbLuc_max_inhibition (%) [1, 7]: 40%
- pIC50 (HepG2-A16-CD81EGFP cells; sheet 2nd round): < 5.00
- Tox_max_inhibition (%) (HepG2-A16-CD81EGFP cells; [7]): 5.5%
